SMILES strings stand for the structures. Where two headings read alike, the source gives them in different places.

The test system of series [1] is Salmonella typhimurium TA1537. The procedure:
(§1) The Ames test was conducted according to a conventionally known approach. That is, each bacterial strain of Salmonella typhimurium TA100, TA1535, TA98, and TA1537 strains and an Escherichia coli WP2uvrA strain was mixed with each compound with seven concentrations (78.1 to 5,000 μg/plate), preincubated in vitro for 20 minutes, and then inoculated, together with added semifluid agar, to a minimal glucose agar medium, followed by solidification and incubation at 37° C. for 48 hours. This experiment involved no rat liver S9 fraction because the experiment was aimed at evaluating the mutagenicity of each compound in a cell culture system, not evaluating metabolites obtained after metabolisms by hepatic enzymes. […] Positivity was determined when an average number of revertant colonies in any of the bacterial strains was at least twice or more the average number of the negative control.

The next series addresses T1, ALK5 (Homo sapiens, UniProt P36897).
T1 sequence (P36897 34-503): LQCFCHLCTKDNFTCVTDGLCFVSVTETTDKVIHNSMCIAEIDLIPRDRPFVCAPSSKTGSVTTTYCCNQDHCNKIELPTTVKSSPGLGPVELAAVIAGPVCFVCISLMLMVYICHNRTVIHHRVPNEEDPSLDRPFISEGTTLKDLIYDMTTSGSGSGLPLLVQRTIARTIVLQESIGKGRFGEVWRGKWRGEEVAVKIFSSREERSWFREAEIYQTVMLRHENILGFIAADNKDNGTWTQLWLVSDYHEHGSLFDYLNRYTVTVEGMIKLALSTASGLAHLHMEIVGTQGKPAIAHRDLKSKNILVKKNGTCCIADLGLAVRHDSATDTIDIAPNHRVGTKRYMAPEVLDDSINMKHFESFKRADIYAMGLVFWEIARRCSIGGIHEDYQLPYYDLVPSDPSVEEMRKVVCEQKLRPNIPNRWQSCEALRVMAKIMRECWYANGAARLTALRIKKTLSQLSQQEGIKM
The experiment in a line: ALK5-inhibiting activity (FIG. 1). It is filed as biochemical.

Series [2] relates to Salmonella typhimurium TA100, TA1535, TA98, and TA1537 strains and an Escherichia coli WP2uvrA strain. The experiment in a line: Ames test (mutagenicity evaluation). The following applies: no S9 fraction; FIG. 1. The procedure:
as §1

The test system of series [3] is insulin-positive cell population obtained from human iPS cells. The experiment in a line: single-cell RNA-seq analysis of insulin-positive cell populations. The class given is cell-based. The following applies: for typical endocrine cells (clusters #0, #1, #2, #3, and #6) in the insulin-positive cell population: 10 μM ALK5iII, 3 μM SB431542, 0.3 μM Senexin B or combination; for percentage of each cluster (#1, #3, #6, and #12) in insulin-positive and NKX6.1-positive cell subpopulation: versus population produced using ALK5iII, FIG. 5. The method, then: Subsequently, in order to compare cell composition among the respective insulin-positive cell populations produced using the inhibitors (1) to (4), single-cell RNA-seq (scRNA-seq) analysis was conducted. A library for scRNA-seq analysis was prepared using Chromium Controller and a preparation kit (Chromium Next GEM Single Cell 3′ Kits v3.1) from 10× Genomics, Inc. and sequenced using Hi-seq platform from Illumina, Inc. Data on the obtained UMI counts was analyzed using Cell Ranger and R Package Seurat from 10× Genomics, Inc. and subjected to dimensionality reduction and visualization using PCA and UMAP. Cell clustering based on the results of dimensionality reduction was carried out by clustering based on the shared nearest neighbor method of Seurat.
As a result, cell clusters #1 to #17 were identified in the respective insulin-positive cell populations produced using the inhibitors (1) to (4). […] The cells of clusters #3 and #6 had features specific for enterochromaffin cells. […] These cells can thereby be discriminated from the cells of cluster #1 adjacent thereto and are therefore considered to be relatively immature β cells. Some of the β cells might be integrated, together with α cells, δ cells, and γ cells, into cluster #0.

In a further series the test system is CDK8 and CDK19 (CDK8/19). The experiment in a line: binding evaluation test of kinase inhibitors against 11 kinases (FIG. 3). The following applies: compared among ALK5iII and nonmutagenic ALK5 inhibitors. The procedure:
Next, the nonmutagenic ALK5 inhibitors (SB431542, SB525334, IN1130, and EW-7197) were also evaluated for their inhibitory activity against these 11 kinases.

In another series the target is CDK8 (Homo sapiens, UniProt P49336). The following applies: estimated from inhibition at 0.1 μM and 1 μM.
Sequence of CDK8 (P49336 whole entry, species assumed): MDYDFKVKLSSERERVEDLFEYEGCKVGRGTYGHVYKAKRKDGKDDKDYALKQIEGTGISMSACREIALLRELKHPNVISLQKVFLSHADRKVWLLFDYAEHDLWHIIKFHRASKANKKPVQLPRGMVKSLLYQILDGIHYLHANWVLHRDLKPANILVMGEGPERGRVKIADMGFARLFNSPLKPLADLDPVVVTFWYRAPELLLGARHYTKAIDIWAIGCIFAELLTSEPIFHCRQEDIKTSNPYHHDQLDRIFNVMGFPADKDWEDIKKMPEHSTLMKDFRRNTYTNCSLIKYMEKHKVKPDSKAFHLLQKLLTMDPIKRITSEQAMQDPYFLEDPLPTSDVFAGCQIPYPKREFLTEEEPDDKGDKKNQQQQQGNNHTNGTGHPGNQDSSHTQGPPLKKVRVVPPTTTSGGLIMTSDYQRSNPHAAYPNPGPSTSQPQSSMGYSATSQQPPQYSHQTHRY
Sequence of CDK8 (P24863 whole entry partner, species assumed): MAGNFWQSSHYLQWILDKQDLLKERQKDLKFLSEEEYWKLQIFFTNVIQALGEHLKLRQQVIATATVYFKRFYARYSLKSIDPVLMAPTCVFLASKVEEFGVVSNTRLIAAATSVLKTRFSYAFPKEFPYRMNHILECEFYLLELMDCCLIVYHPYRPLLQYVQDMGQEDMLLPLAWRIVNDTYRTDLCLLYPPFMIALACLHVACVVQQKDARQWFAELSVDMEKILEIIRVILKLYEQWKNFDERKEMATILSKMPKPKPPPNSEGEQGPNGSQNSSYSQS
Series [4] has as its system 11 kinases including CDK8 and CDK19. To be noted: 11 of approximately 350 recombinant kinases.
For the next series, the target named is TGFBR2 (Homo sapiens, UniProt P37173). To be noted: estimated from inhibition at 0.1 μM and 1 μM.
Sequence of TGFBR2 (P37173 23-567, species assumed): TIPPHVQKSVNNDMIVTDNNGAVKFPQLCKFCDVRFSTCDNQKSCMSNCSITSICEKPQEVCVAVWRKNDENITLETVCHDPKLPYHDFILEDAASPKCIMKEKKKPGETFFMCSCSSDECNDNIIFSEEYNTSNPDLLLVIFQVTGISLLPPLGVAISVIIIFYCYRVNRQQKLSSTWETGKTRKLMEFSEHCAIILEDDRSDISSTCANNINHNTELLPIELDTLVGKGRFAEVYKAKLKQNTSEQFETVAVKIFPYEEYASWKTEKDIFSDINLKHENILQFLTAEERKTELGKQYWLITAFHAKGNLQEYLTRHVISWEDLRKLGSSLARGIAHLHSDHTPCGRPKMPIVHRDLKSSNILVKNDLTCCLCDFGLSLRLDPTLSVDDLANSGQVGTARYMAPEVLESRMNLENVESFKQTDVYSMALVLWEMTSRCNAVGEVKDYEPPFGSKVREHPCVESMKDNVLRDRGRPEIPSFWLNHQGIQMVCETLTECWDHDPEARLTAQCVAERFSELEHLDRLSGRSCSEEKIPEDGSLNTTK
The target of another series is TNIK (Homo sapiens, UniProt Q9UKE5). The following applies: estimated from inhibition at 0.1 μM and 1 μM.
Sequence of TNIK (Q9UKE5 whole entry, species assumed): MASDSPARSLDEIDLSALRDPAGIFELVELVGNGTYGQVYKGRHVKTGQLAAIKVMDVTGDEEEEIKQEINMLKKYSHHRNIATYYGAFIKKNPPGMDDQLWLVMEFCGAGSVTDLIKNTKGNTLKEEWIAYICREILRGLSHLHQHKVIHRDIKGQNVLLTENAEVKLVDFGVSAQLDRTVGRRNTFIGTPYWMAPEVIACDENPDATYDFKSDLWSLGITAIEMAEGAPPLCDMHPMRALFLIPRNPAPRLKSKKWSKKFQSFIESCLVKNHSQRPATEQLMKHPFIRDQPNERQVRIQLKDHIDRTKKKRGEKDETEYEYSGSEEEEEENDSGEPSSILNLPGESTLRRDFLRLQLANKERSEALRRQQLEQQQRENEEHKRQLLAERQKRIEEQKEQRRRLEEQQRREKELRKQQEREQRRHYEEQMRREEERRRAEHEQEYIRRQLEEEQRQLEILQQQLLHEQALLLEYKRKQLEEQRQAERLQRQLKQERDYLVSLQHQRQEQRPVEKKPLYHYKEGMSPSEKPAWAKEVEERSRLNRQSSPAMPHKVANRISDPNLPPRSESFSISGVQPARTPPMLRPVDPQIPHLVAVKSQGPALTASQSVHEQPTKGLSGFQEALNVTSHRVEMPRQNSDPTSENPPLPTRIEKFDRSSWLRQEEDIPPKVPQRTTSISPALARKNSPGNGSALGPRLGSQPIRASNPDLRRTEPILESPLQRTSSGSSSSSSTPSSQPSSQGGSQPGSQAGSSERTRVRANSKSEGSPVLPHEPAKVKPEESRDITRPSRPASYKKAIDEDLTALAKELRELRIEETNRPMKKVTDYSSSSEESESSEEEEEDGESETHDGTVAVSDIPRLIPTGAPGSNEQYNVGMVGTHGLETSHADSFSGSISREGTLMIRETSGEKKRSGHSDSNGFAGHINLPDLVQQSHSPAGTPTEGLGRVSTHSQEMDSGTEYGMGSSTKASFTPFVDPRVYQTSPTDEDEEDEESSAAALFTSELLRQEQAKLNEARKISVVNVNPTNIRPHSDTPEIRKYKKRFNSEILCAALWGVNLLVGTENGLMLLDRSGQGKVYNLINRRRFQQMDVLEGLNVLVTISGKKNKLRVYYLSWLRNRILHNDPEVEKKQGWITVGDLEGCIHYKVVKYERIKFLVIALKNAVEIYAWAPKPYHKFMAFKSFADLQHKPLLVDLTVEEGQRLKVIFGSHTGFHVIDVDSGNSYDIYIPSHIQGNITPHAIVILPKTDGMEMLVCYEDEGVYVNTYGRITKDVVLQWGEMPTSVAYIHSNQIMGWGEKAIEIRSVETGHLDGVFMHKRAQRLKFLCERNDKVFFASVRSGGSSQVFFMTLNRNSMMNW
A further series concerns the target CDK19 (Homo sapiens, UniProt Q9BWU1). To be noted: estimated from inhibition at 0.1 μM and 1 μM.
The next series concerns the target RIPK2 (Homo sapiens, UniProt O43353). To be noted: estimated from inhibition at 0.1 μM and 1 μM.
For series [5], the system named is pancreatic progenitor cell population obtained from human iPS cells (Ff-I14-s04 line). The experiment in a line: induction of differentiation of pancreatic progenitor cell population into insulin-positive cell population, flow cytometry. The class given is cell-based. The method, then:
In this testing method, the induction of differentiation of human iPS cells (Ff-I14-s04 line) into a pancreatic progenitor cell population was carried out according to the above steps 1)-4), the previous report (Stem Cell Research (2015) 14, 185-197), etc. The induction of differentiation into insulin-positive cells was carried out according to the above step 5), 6), etc.
The number of insulin-positive and NKX6.1-positive cells and the number of CHGA-positive and PDX1-positive cells in the insulin-positive cell population obtained by the above method was counted by flow cytometry to determine the respective proportions of the cells in each cell population.
The number of insulin-positive and NKX6.1-positive cells in the insulin-positive cell population obtained by the above method was counted by flow cytometry to determine the respective proportions of the cells in each cell population.
(A flow cytometer gives signals particle by particle.)

Series [6] shares this test system. The description is as above. To be noted: Example 3; 3 μM SB431542, 0.3 μM Senexin B or both; versus 10 μM ALK5iII, FIG. 4B. It is filed as cell-based.
Where [7] appears, read: Example 2, SB525334 10 μM, SB431542 10 μM, IN1130 1 μM, EW-7197 1 μM, versus control medium (−).
Setting [8] is: Example 3, 3 μM SB431542, 0.3 μM Senexin B or both, versus 10 μM ALK5iII, FIG. 4A.

Sequence of RIPK2 (O43353 whole entry, species assumed): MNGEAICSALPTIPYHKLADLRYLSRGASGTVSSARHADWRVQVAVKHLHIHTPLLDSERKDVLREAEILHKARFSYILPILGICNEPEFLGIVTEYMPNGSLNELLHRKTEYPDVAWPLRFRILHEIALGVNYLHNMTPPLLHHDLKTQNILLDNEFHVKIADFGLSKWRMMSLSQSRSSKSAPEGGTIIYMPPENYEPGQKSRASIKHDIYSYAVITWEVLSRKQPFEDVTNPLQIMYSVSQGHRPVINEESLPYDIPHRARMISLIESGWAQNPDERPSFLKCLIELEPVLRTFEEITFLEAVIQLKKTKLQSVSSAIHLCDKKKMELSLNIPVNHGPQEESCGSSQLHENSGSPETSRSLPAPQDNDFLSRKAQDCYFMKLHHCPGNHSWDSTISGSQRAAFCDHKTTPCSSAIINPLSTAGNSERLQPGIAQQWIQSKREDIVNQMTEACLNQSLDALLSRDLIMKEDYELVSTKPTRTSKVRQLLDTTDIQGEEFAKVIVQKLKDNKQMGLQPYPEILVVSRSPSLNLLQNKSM
Sequence of CDK19 (Q9BWU1 whole entry, species assumed): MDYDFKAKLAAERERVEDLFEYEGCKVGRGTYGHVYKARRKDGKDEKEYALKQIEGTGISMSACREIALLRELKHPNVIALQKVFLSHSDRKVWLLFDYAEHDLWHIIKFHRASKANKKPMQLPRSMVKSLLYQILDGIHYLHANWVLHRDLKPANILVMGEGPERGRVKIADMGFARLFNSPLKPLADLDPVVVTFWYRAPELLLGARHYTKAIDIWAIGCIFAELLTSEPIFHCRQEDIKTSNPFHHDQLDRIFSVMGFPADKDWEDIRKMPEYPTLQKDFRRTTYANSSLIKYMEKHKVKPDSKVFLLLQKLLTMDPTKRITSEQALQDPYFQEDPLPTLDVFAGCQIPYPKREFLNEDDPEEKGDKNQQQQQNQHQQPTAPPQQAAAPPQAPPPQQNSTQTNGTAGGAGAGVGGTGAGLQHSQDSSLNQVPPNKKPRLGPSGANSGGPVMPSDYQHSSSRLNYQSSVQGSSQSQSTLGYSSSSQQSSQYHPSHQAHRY
Sequence of CDK19 (P24863 whole entry partner, species assumed): as the sequence (P24863 whole entry partner, species assumed) above

With `c1cncc(-c2n[nH]cc2-c2cnc3ccccc3n2)c1` [2-(3-(pyridin-3-yl)-1H-pyrazol-4-yl)quinoxaline], the “# of colony” value in series [1] (TA1537, -S9, 78.1 μg/plate) stood at 5; in series [1] (TA1537, -S9, 156 μg/plate) it was 9; in series [1] (TA1537, -S9, 313 μg/plate), 21; in [1] (TA1537, -S9, 625 μg/plate), 45; in [1] (TA1537, -S9, 1250 μg/plate) it was 82; in series [1] (TA1537, -S9, 2500 μg/plate), 128. In addition, the “# of colony” value in [1] (TA1537, -S9, 5000 μg/plate) was 194. Besides, the ALK5-inhibiting activity result at ALK5 is reported as “no ALK5-inhibiting activity”. Besides, the “mutagenicity / Ames test determination” value in series [2] is on record as “positive”.

Regarding `Cc1cccc(-c2n[nH]cc2-c2ccc3ncccc3n2)n1` [ALK5iII, 2-(3-(6-methylpyridin-2-yl)-1H-pyrazol-4-yl)-1,5-naphthyridine], in [3] (scRNA-seq), the “typical endocrine cells (clusters #0, #1, #2, #3, and #6) in the insulin-positive cell population” value (shortened to “typical endocrine cells”) was “found with almost no exception”. In addition, the “inhibitory activity against CDK8 and CDK19 (CDK8/19)” value (“inhibitory activity” for short) in the series with CDK8 and CDK19 (CDK8/19) is “unique to ALK5iII”. Moreover, in [1], the Ames test determination entry was “positive”. For the same compound, the “Estimate pIC50 value” on CDK8 is 6.80 ± 0.40; at TGFBR2, 6.97 ± 0.12; on TNIK it was 6.18 ± 0.14; on CDK19, 7.18 ± 0.50; on RIPK2, 6.82 ± 0.05. Further, in series [4], the “estimate pIC50 value against 11 kinases” value is “more than 6”.

With `Cl.Nc1c2ccccc2nc2ccccc12.O` [Compound 9-AA, 9-aminoacridine hydrochloride monohydrate], the “# of colony” value in [1] (TA1537, -S9, positive control, 80 μg (ALK5 i II experiment)) is recorded as 169.

Regarding `Cc1cccc(-c2[nH]c(CNc3ccccc3F)nc2-c2ccc3ncnn3c2)n1` [EW-7197], the “inhibitory activity” value in the series on CDK8 and CDK19 (CDK8/19) is listed as “unique to ALK5iII”. For the same compound, in [5] (setting [7]), the “proportion of CHGA-positive and PDX1-positive cells” value was “equivalent to the control”; the “proportion of insulin-positive and NKX6.1-positive cells” value is “equivalent to the control”.

For `COc1ccc2nc3cc(Cl)ccc3c(NCCCNCCCl)c2c1` [ICR 191], in series [1] (TA1537, -S9, positive control, 1.0 μg (quinoxaline analog experiment)), the “# of colony” value amounted to 1804.

On to `Cc1cccc(-c2nc(Cc3cccc(C(N)=O)c3)[nH]c2-c2ccc3nccnc3c2)n1` [IN1130, 3-[[5-(6-Methyl-2-pyridinyl)-4-(6-quinoxalinyl)-1H-imidazol-2-yl]methyl]benzamide], for which the “inhibitory activity” value in the series with CDK8 and CDK19 (CDK8/19) is listed as “unique to ALK5iII”. In [5] (setting [7]), the “proportion of CHGA-positive and PDX1-positive cells” value is recorded as “equivalent to the control”; the “proportion of insulin-positive and NKX6.1-positive cells” value is listed as “equivalent to the control”.

On to `NC(=O)c1ccc(-c2nc(-c3ccc4c(c3)OCO4)c(-c3ccccn3)[nH]2)cc1` [SB431542, 4-[4-(1,3-Benzodioxol-5-yl)-5-(2-pyridinyl)-1H-imidazol-2-yl]-benzamide], for which, in series [3] (scRNA-seq), the “clusters #5, #9, #10, #12, and #13” value is “specialized”; the “typical endocrine cells” value is reported as “not found”. The “percentage of each cluster (#1, #3, #6, and #12) in insulin-positive and NKX6.1-positive cell subpopulation” value in series [3] is reported as “different”. Also, the “inhibitory activity” value with CDK8 and CDK19 (CDK8/19) is on record as “unique to ALK5iII”. Besides, in [5] (setting [7]), the “proportion of CHGA-positive and PDX1-positive cells” value is given as “equivalent to the control”; the “proportion of insulin-positive and NKX6.1-positive cells” value is “equivalent to the control”. In addition, the “proportion of insulin-positive and NKX6.1-positive cells” value in series [5] (setting [8]) is on record as “lower values”. Also, the total cell yield entry in [6] is “lower values”. Further, the “mutagenicity / Ames test determination” value in series [2] is given as “no mutagenicity”.

For the compound `Cc1cccc(-c2nc(C(C)(C)C)[nH]c2-c2ccc3nccnc3c2)n1` [SB525334, 6-[2-tert-Butyl-5-(6-methylpyridin-2-yl)-1H-imidazol-4-yl]quinoxaline], the “inhibitory activity” value in the series on CDK8 and CDK19 (CDK8/19) is listed as “unique to ALK5iII”. In addition, in series [5] (setting [7]), the “proportion of CHGA-positive and PDX1-positive cells” value is recorded as “equivalent to the control”; the “proportion of insulin-positive and NKX6.1-positive cells” value was “equivalent to the control”. Besides, the “mutagenicity / Ames test determination” value in series [2] was “no mutagenicity”.

Consider `CN1CCN(C(=O)c2ccc3cc(CCNc4ncnc5ccc(C#N)cc45)ccc3c2)CC1` [Senexin B, 4-((2-(6-(4-Methylpiperazine-1-carbonyl)naphthalen-2-yl)ethyl)amino)quinazoline-6-carbonitrile], for which, in series [3] (scRNA-seq), the “typical endocrine cells” value is on record as “found with almost no exception”. The “percentage of each cluster (#1, #3, #6, and #12) in insulin-positive and NKX6.1-positive cell subpopulation” value in series [3] was “different”. For the same compound, the “proportion of insulin-positive and NKX6.1-positive cells” value in series [5] (setting [8]) is “higher percentage”. Besides, the total cell yield result in series [6] is given as “lower value”.

The record behind these values is patent US20250188420A1, “MATURING AGENT HAVING BOTH OF ALK5 INHIBITORY ACTIVITY AND CDK8/19 INHIBITORY ACTIVITY” (ORIZURU THERAPEUTICS, INC., priority 2022, published 2025).
